Data taken from patent US7816361B2, “Immuno inhibitory pyrazolone compounds” (Medigene Limited, priority 2003, dated 2010).

Target: T1, Biotinylated human CD80 (hCD80-BT) (Homo sapiens, UniProt P33681)
T1 construct: biotin (biotinylation)
T1 sequence (P33681 35-242 limits assumed): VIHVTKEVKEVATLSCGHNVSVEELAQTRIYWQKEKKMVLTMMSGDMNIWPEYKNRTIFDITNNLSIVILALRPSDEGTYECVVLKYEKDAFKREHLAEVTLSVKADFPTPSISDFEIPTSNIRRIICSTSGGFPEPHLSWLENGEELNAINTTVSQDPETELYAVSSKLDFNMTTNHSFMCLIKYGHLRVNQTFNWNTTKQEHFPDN
Test: not given
Settings: endogenous protein ligand CD28; cited from earlier work

In the case of “CD28: the endogenous protein ligand of CD80”, the “off-rate of CD80-CD28 interaction” value is given as “greater than 0.2 s^−1”.

Same assay, conditions: endogenous protein ligand CD28; read-out: KD of CD80-CD28 interaction; cited from earlier work

For “CD28: the endogenous protein ligand of CD80”, the Kd is listed as 4750 nM.

Target: T1, Biotinylated human CD80 (hCD80-BT)
Test: Biacore biomolecular interaction analysis (BIAcore S51)
Assay type: binding
Settings: BIAcore S51, immobilised hCD80-BT
Description: Assay Protocols The Use of Biacore Biomolecular Interaction Analysis
Biotinylated human CD80 (hCD80-BT) is a recombinant soluble form of a membrane bound receptor molecule (CD80) which binds to CD28 to initiate T cell activation. The interaction between CD80 and CD28 has been extensively investigated (Collins et al., 2002). Biotinlyated human HLA-A2-tax is the recombinant soluble form of a membrane bound receptor molecule that has been used in this example as a control protein, and is not expected to interact with the compounds.
The BIAcore S51™ system was used for screening the compounds of Examples 1-4 above. A series S sensor chip CM5 was docked onto the BIAcore S51™. Streptavidin was coupled to the carboxymethyl surface using standard amine coupling. The chip surface was activated with 0.2M EDC/0.05M NHS, followed by binding of streptavidin (0.25 mg/ml in 10 mM sodium acetate pH 5.0) and saturation of unoccupied sites with […].
The BIAcore S51 sensor chip has two separate sensor spots for immobilisation of proteins. hCD80-BT was immobilised on the streptavidin-coated surface of one sensor spot until a response of approximately 3000 RU was observed. A protein to control for non-specific binding of the compound was immobilised on a second sensor spot. The control protein used for these experiments was a biotinylated, soluble form of the human HLA protein.
Dilution series of compounds (1000 nM-0.05 nM) were prepared in running buffer (10 mM, pH 7.4, 150 mM NaCl, 0.005% P20; 5% DMSO).
BIAcore S51™ was run at a flow rate of 30 μl/min using running buffer. Compounds and DMSO standard solutions for correction of data for solvent effects were injected. Data were recorded automatically and were analysed using BIAcore S51 Evaluation software.

`CN1C(C)(C)CC(NC(=O)c2ccc(-n3[nH]c(-c4ccccc4)cc3=O)cc2)CC1(C)C` [Example 7] and `CN(C)CCCNC(=O)c1ccc(-n2[nH]c(-c3ccco3)cc2=O)cc1` [Example 11] cannot be ordered by Kd: < 100 nM for the first, < 100 nM for the second.

In the case of `CN1C(C)(C)CC(NC(=O)c2ccc(-n3[nH]c(-c4ccccc4)cc3=O)cc2)CC1(C)C` [Example 7], the “off-rate on CD80” value is reported as 2×10^−2.
With `CN(C)CCCNC(=O)c1ccc(-n2[nH]c(-c3ccco3)cc2=O)cc1` [Example 11] the “off-rate on CD80” value was 2×10^−2.

System: IL-2 production by human Jurkat T cells (with Raji cells, anti-CD3)
Test: Inhibition of production of interleukin-2 (IL-2) by human Jurkat T cells
Assay type: cell-based
Settings: 5 hours
Description: Inhibition of Production of Interleukin-2 (IL-2) by Human Jurkat T Cells.
Human Raji cells were dispensed at a concentration of 2×10^5 cells per well in RPMI-1640 medium supplemented with 10% fetal calf serum, 1% penicillin/streptomycin, 1% glutamine (RPMI medium) in a 96-well round bottom microtitre plate. Compounds under investigation (dissolved in 100% DMSO) were diluted to eight-fold the desired final concentration in RPMI medium and added to the required final concentration for a total volume of 200 μl per well. After 20 minutes incubation at 37° C., Jurkat T cells were added at a concentration of 2×10^5 cells per well. Monoclonal antibody to CD3 (UCHT1, R&D Systems) was added to the cultures at a final concentration of 1 μg per ml, and where indicated, monoclonal antibody to CD28 (CD28.2, BD-Pharmingen) was also added at a concentration of 2.5 μg per ml. Cells were cultured at 37° C. for 5 hours, after which the plates were centrifuged and the supernatants harvested for IL-2 ELISA assay using the IL-2 Eli-pair kit (DIACLONE Research, Besancon, France) according to the manufacturers instructions.

Compound `CN(C)CCCNC(=O)c1ccc(-n2[nH]c(-c3cccc(F)c3)cc2=O)cc1` [Example 26] has an inhibition at 30 µM of 52%.

Target: T2, CD80-CD28 interaction (Homo sapiens, UniProt P33681)
T2 sequence (P33681 35-242 limits assumed): T1 sequence (P33681 35-242 limits assumed)
Test: Homogenous Time Resolved Fluorescence (HTRF) assay, cell free
Assay type: binding
Settings: inhibition of CD80-CD28 interaction; concentration series 100 μM-1.7 nM; 4 hours at room temperature; read-out: Activity Rating (EC50) in the HTRF assay
Description: Homogenous Time Resolved Fluorescence Assay
The examples described above were tested in a cell free Homogenous Time Resolved Fluorescence (HTRF) assay to determine their activity as inhibitors of the CD80-CD28 interaction.
In the assay, europium and allophycocyanin (APC) are associated with CD28 and CD80 indirectly (through antibody linkers) to form a complex, which brings the europium and APC into close proximity to generate a signal. The complex comprises the following six proteins: fluorescent label 1, linker antibody 1, CD28 fusion protein, CD80 fusion protein, linker antibody 2, and fluorescent label 2. The table below describes these reagents in greater detail.
On formation of the complex, europium and APC are brought into proximity and a signal is generated.
Non-specific interaction was measured by substituting a mouse Fab fragment (C215) for the CD80 mouse Fab fragment fusion protein (1.9 μg/ml). The assay was carried out in black 384 well plates in a final volume of 30 μl. Assay buffer: 50 mM Tris-HCl, 150 mM NaCl pH7.8, containing 0.1% BSA (w/v) added just prior to use.
Compounds were added to the above reagents in a concentration series ranging between 100 μM-1.7 nM. The reaction was incubated for 4 hours at room temperature. Dual measurements were made using a Wallac Victor 1420 Multilabel Counter. First measurement: excitation 340 nm, emission 665 nm, delay 50 μs, window time 200 μs. second measurement: excitation 340 nm, emission 615 nm, delay 50 μs, window time 200 μs. Counts were automatically corrected for fluorescence crossover, quenching and background. The EC50 activities of compounds tested are recorded as: EC50: *=>10 μM, **=1-10 μM, ***=<1 μM.

First: CN1C(C)(C)CC(NC(=O)c2ccc(-n3[nH]c(-c4ccno4)cc3=O)cc2)CC1(C)C [Example 2, 4-(3-Isoxazol-5-yl-5-oxo-2,5-dihydro-pyrazol-1-yl)-N-(1,2,2,6,6-pentamethyl-piperidin-4-yl)-benzamide]
Second: CN1C(C)(C)CC(NC(=O)c2ccc(-n3[nH]c(-c4ccco4)cc3=O)cc2)CC1(C)C [Example 19]
The EC50 of the first is higher: > 10000 nM for the first, < 1000 nM for the second.

First: Cc1c(-c2ccco2)[nH]n(-c2ccc(C(=O)NC3CC(C)(C)N(C)C(C)(C)C3)cc2)c1=O [Example 3, 4-(3-Furan-2-yl-4-methyl-5-oxo-2,5-dihydro-pyrazol-1-yl)-N-(1,2,2,6,6-pentamethyl-piperidin-4-yl)-benzamide]
Second: CN1C(C)(C)CC(NC(=O)c2ccc(-n3[nH]c(-c4ccoc4)cc3=O)cc2)CC1(C)C [Example 20]
The EC50 of the first is higher: > 10000 nM for the first, 1000 to 10000 nM for the second. The second is the more potent here.

Compared with `CN(C)CCCNC(=O)c1ccc(-n2[nH]c(-c3ccccc3)cc2=O)cc1` [Example 5], `CN(C)CCCNC(=O)c1ccc(-n2[nH]c(-c3cccc(F)c3)cc2=O)cc1` [Example 26] is lower in EC50: 1000 to 10000 nM for the first, < 1000 nM for the second. The second is the more potent here.

Compared with `O=C(NCCN1CCN(Cc2ccccc2)CC1)c1ccc(-n2[nH]c(-c3ccccc3)cc2=O)cc1` [Example 6], `O=C(NCCCCN1CCCC1)c1ccc(-n2[nH]c(-c3ccccc3)cc2=O)cc1` [Example 8] is lower in EC50: > 10000 nM for the first, < 1000 nM for the second.

Compared with `CN1C(C)(C)CC(NC(=O)c2ccc(-n3[nH]c(-c4ccccc4)cc3=O)cc2)CC1(C)C` [Example 7], `CN1C(C)(C)CC(NC(=O)c2ccc(-n3[nH]c(-c4cccc(F)c4)cc3=O)cc2)CC1(C)C` [Example 28] is lower in EC50: 1000 to 10000 nM for the first, < 1000 nM for the second. The second is the more potent here.

`O=C(NCCCNC1CCCCC1)c1ccc(-n2[nH]c(-c3ccccc3)cc2=O)cc1` [Example 9] and `O=C(NCCCNC1CCCCC1)c1ccc(-n2[nH]c(-c3cccc(F)c3)cc2=O)cc1` [Example 27] fall in the same range of EC50: 1000 to 10000 nM for the first, 1000 to 10000 nM for the second.

`CN(C)CCCNC(=O)c1ccc(-n2[nH]c(-c3ccccn3)cc2=O)cc1` [Example 10] and `CN(C)CCCNC(=O)c1ccc(-n2[nH]c(-c3cnccn3)cc2=O)cc1` [Example 30] cannot be ordered by EC50: < 1000 nM for the first, < 1000 nM for the second.

First: CN(C)CCCNC(=O)c1ccc(-n2[nH]c(-c3ccco3)cc2=O)cc1 [Example 11]
Second: CN(C)CCCNC(=O)c1ccc(-n2[nH]c(-c3ccoc3)cc2=O)cc1 [Example 17]
The EC50 of the first is lower: < 1000 nM for the first, 1000 to 10000 nM for the second. The first is the more potent here.

`CN(C)CCCNC(=O)c1ccc(-n2[nH]c(-c3cccnc3)cc2=O)cc1` [Example 12] and `O=C(NCCCCN1CCCC1)c1ccc(-n2[nH]c(-c3cccnc3)cc2=O)cc1` [Example 25] fall in the same range of EC50: 1000 to 10000 nM for the first, 1000 to 10000 nM for the second.

`O=C(NCCCNC1CCCCC1)c1ccc(-n2[nH]c(-c3ccccn3)cc2=O)cc1` [Example 13] and `O=C(NCCCNC1CCCCC1)c1ccc(-n2[nH]c(-c3cccnc3)cc2=O)cc1` [Example 15] fall in the same range of EC50: 1000 to 10000 nM for the first, 1000 to 10000 nM for the second.

`O=C(NCCCNC1CCCCC1)c1ccc(-n2[nH]c(-c3ccco3)cc2=O)cc1` [Example 14] and `O=C(NCCCNC1CCCCC1)c1ccc(-n2[nH]c(-c3ccoc3)cc2=O)cc1` [Example 18] cannot be ordered by EC50: < 1000 nM for the first, < 1000 nM for the second.

First: CN1C(C)(C)CC(NC(=O)c2ccc(-n3[nH]c(-c4ccccn4)cc3=O)cc2)CC1(C)C [Example 16]
Second: CN1C(C)(C)CC(NC(=O)c2ccc(-n3[nH]c(-c4cccnc4)cc3=O)cc2)CC1(C)C [Example 23]
The EC50 of the first is lower: < 1000 nM for the first, 1000 to 10000 nM for the second. The first is the more potent here.

`O=C(NCCCCN1CCCC1)c1ccc(-n2[nH]c(-c3ccco3)cc2=O)cc1` [Example 21] and `O=C(NCCCCN1CCCC1)c1ccc(-n2[nH]c(-c3ccoc3)cc2=O)cc1` [Example 22] fall in the same range of EC50: 1000 to 10000 nM for the first, 1000 to 10000 nM for the second.

First: O=C(NCCCCN1CCCC1)c1ccc(-n2[nH]c(-c3ccccn3)cc2=O)cc1 [Example 24]
Second: O=C(NCCCCN1CCCC1)c1ccc(-n2[nH]c(-c3cnccn3)cc2=O)cc1 [Example 29]
The EC50 of the first is lower: < 1000 nM for the first, 1000 to 10000 nM for the second.

`O=C(NCCCCN1CCCC1)c1ccc(-n2[nH]c(-c3cc4ccccc4o3)cc2=O)cc1` [Example 31] and `O=C(NCCCNC1CCCCC1)c1ccc(-n2[nH]c(-c3cc4ccccc4o3)cc2=O)cc1` [Example 33] fall in the same range of EC50: 1000 to 10000 nM for the first, 1000 to 10000 nM for the second.

`CN(C)CCCNC(=O)c1ccc(-n2[nH]c(-c3cc4ccccc4o3)cc2=O)cc1` [Example 32] and `CN1C(C)(C)CC(NC(=O)c2ccc(-n3[nH]c(-c4cc5ccccc5o4)cc3=O)cc2)CC1(C)C` [Example 34] fall in the same range of EC50: 1000 to 10000 nM for the first, 1000 to 10000 nM for the second.
